Laboratory results published in publication PMC7979765, “trans-Translation inhibitors bind to a novel site on the ribosome and clear Neisseria gonorrhoeae in vivo” (Nature Communications, 2021).
≈ marks a conversion by molar mass, not a printed value. Where “and” joins values, the source holds several entries; their conditions need not be identical. Equal entries are not always repeated. Where two headings read alike, the source gives them in different places.

Key:
Neisseria gonorrhoeae = assay: MIC, microbroth dilution, G77L medium; type: cell-based; details: replicates 1-3
[1] = Mammalian cell cytotoxicity (CC50); type: cell-based, human; details: human, HeLa cells (ATCC CCL-2)
Experimental: (§1) The half maximal cytotoxic concentration (CC50) of each compound against HeLa cells (ATCC CCL-2) was measured as previously described. […] The mean values for each biological replicate were averaged, and the CC50 was determined using a 4-parameter nonlinear curve fitting algorithm (GraphPad Prism). The average of the CC50s from two biological replicates was calculated and reported.

HeLa cells = assay: Mammalian cell cytotoxicity (CC50); type: cell-based, human; details: for NORMALIZED DATA (Fraction DMSO Control) / […] (Fraction DMSO Control): HeLa, per replicate
Experimental: as §1

Solubility (formulated) = type: physicochemical
Pseudomonas aeruginosa = assay: MIC, microbroth dilution; type: cell-based
[2] = HeLa cytotoxicity, value per replicate

O=C(Nc1nnc(-c2ccc(F)cc2)o1)N1CCc2ccccc2C1 [MBX-4132]
MIC (Neisseria gonorrhoeae; strain CDC-0166): 0.169 µg/mL (≈ 0.499 µM) | MIC (Neisseria gonorrhoeae; strain CDC-0167): 0.169 µg/mL and 0.085 µg/mL | MIC (Neisseria gonorrhoeae; strain CDC-0169): 0.169 µg/mL (≈ 0.499 µM) | MIC (Neisseria gonorrhoeae; strain CDC-0170): 0.169 µg/mL (≈ 0.499 µM) | MIC (Neisseria gonorrhoeae; strain CDC-0171): 0.169 µg/mL (≈ 0.499 µM) | MIC (Neisseria gonorrhoeae; strain CDC-0172): 0.169 µg/mL (≈ 0.499 µM) | MIC (Neisseria gonorrhoeae; strain CDC-0173): 0.169 µg/mL (≈ 0.499 µM) | MIC (Neisseria gonorrhoeae; strain CDC-0174): 0.169 µg/mL (≈ 0.499 µM) | MIC (Neisseria gonorrhoeae; strain CDC-0175): 0.085 µg/mL (≈ 0.251 µM) | MIC (Neisseria gonorrhoeae; strain CDC-0176): 0.338 µg/mL (≈ 0.999 µM) | MIC (Neisseria gonorrhoeae; strain CDC-0177): 0.169 µg/mL (≈ 0.499 µM) | MIC (Neisseria gonorrhoeae; strain CDC-0178): 0.338 µg/mL (≈ 0.999 µM) | MIC (Neisseria gonorrhoeae; strain CDC-0179): 0.085 µg/mL (≈ 0.251 µM) | MIC (Neisseria gonorrhoeae; strain CDC-0180): 0.169 µg/mL (≈ 0.499 µM) | MIC (Neisseria gonorrhoeae; strain CDC-0181): 0.169 µg/mL (≈ 0.499 µM) | MIC (Neisseria gonorrhoeae; strain CDC-0182): 0.169 µg/mL (≈ 0.499 µM) | MIC (Neisseria gonorrhoeae; strain CDC-0183): 0.338 µg/mL (≈ 0.999 µM) | MIC (Neisseria gonorrhoeae; strain CDC-0184): 0.169 µg/mL (≈ 0.499 µM) | MIC (Neisseria gonorrhoeae; strain CDC-0185): 0.338 µg/mL and 0.169 µg/mL | MIC (Neisseria gonorrhoeae; strain CDC-0186): 0.169 µg/mL (≈ 0.499 µM) | MIC (Neisseria gonorrhoeae; strain CDC-0187): 0.338 µg/mL (≈ 0.999 µM) | MIC (Neisseria gonorrhoeae; strain CDC-0188): 0.169 µg/mL (≈ 0.499 µM) | MIC (Neisseria gonorrhoeae; strain CDC-0189): 0.085 µg/mL and 0.169 µg/mL | MIC (Neisseria gonorrhoeae; strain CDC-0190): 0.169 µg/mL (≈ 0.499 µM) | MIC (Neisseria gonorrhoeae; strain HO41): 0.169 µg/mL (≈ 0.499 µM) | MIC (Neisseria gonorrhoeae; strain WHO F): 0.066 µg/mL (≈ 0.195 µM) | MIC (Neisseria gonorrhoeae; strain WHO G): 0.132 µg/mL (≈ 0.39 µM) | MIC (Neisseria gonorrhoeae; strain WHO K): 0.264 µg/mL (≈ 0.78 µM) | MIC (Neisseria gonorrhoeae; strain WHO L): 0.264 µg/mL (≈ 0.78 µM) | MIC (Neisseria gonorrhoeae; strain WHO M): 0.132 µg/mL (≈ 0.39 µM) | MIC (Neisseria gonorrhoeae; strain WHO N): 0.264 µg/mL (≈ 0.78 µM) | MIC (Neisseria gonorrhoeae; strain WHO O): 0.132 µg/mL (≈ 0.39 µM) | MIC (Neisseria gonorrhoeae; strain WHO P): 0.529 µg/ml and 0.264 µg/ml (2×) | MIC (Neisseria gonorrhoeae; strain WHO U): 0.132 µg/mL (≈ 0.39 µM) | MIC (Neisseria gonorrhoeae; strain WHO V): 0.264 µg/mL (≈ 0.78 µM) | MIC (Neisseria gonorrhoeae; strain WHO W): 0.132 µg/mL (≈ 0.39 µM) | MIC (Neisseria gonorrhoeae; strain WHO X): 0.264 µg/mL (≈ 0.78 µM) | MIC (Neisseria gonorrhoeae; strain WHO Y): 0.132 µg/mL and 0.264 µg/mL | MIC (Neisseria gonorrhoeae; strain WHO Z): 0.264 µg/mL (≈ 0.78 µM) | CC50 [1, 2]: 22.2 µM | CC50 ([1]; half-maximal cytotoxic concentration against HeLa cells): 45 µM | CC50 (HeLa cells; [2]): 40.1 µM and 36.3 µM and 20.1 µM and 22.1 µM and 22.6 µM | NORMALIZED DATA (Fraction DMSO Control) (HeLa cells; [CMPD] 0.78125 µM): 0.9968 Fraction DMSO Control and 1.046 Fraction DMSO Control and 1.033 Fraction DMSO Control and 0.9287 Fraction DMSO Control and 0.9308 Fraction DMSO Control and 0.9008 Fraction DMSO Control | NORMALIZED DATA (Fraction DMSO Control) (HeLa cells; [CMPD] 1.5625 µM): 0.97 Fraction DMSO Control and 0.9994 Fraction DMSO Control and 0.9978 Fraction DMSO Control and 0.9354 Fraction DMSO Control and 0.9201 Fraction DMSO Control and 0.9227 Fraction DMSO Control | NORMALIZED DATA (Fraction DMSO Control) (HeLa cells; [CMPD] 3.125 µM): 0.9272 Fraction DMSO Control and 0.9885 Fraction DMSO Control and 0.9744 Fraction DMSO Control and 0.9295 Fraction DMSO Control and 0.9174 Fraction DMSO Control and 0.8829 Fraction DMSO Control | NORMALIZED DATA (Fraction DMSO Control) (HeLa cells; [CMPD] 6.25 µM): 0.9057 Fraction DMSO Control and 0.9944 Fraction DMSO Control and 0.9769 Fraction DMSO Control and 0.8719 Fraction DMSO Control and 0.9166 Fraction DMSO Control and 0.9146 Fraction DMSO Control | NORMALIZED DATA (Fraction DMSO Control) (HeLa cells; [CMPD] 12.5 µM): 0.7347 Fraction DMSO Control and 0.9472 Fraction DMSO Control and 1.04 Fraction DMSO Control and 0.6999 Fraction DMSO Control and 0.7003 Fraction DMSO Control and 0.7354 Fraction DMSO Control | NORMALIZED DATA (Fraction DMSO Control) (HeLa cells; [CMPD] 25 µM): 0.4205 Fraction DMSO Control and 0.7028 Fraction DMSO Control and 0.4452 Fraction DMSO Control and 0.4899 Fraction DMSO Control and 0.486 Fraction DMSO Control | […] (Fraction DMSO Control) (HeLa cells; [CMPD] 25 µM): 0.7319 Fraction DMSO Control | NORMALIZED DATA (Fraction DMSO Control) (HeLa cells; [CMPD] 50 µM): 0.4043 Fraction DMSO Control and 0.3802 Fraction DMSO Control and 0.2112 Fraction DMSO Control and 0.1979 Fraction DMSO Control | […] (Fraction DMSO Control) (HeLa cells; [CMPD] 50 µM): 0.2642 Fraction DMSO Control and 0.1957 Fraction DMSO Control | NORMALIZED DATA (Fraction DMSO Control) (HeLa cells; [CMPD] 100 µM): 0.2429 Fraction DMSO Control and 0.2248 Fraction DMSO Control and 0.2297 Fraction DMSO Control | […] (Fraction DMSO Control) (HeLa cells; [CMPD] 100 µM): 0.1038 Fraction DMSO Control and 0.3131 Fraction DMSO Control and 0.2661 Fraction DMSO Control | Solubility (Solubility (formulated)): 5000 µg/mL (≈ 14800 µM) | MIC (Pseudomonas aeruginosa; Pseudomonas aeruginosa ATCC 27853, replicates): ≥34 µg/mL | MIC (Pseudomonas aeruginosa; Pseudomonas aeruginosa, ATCC27853, Pseudomonas aeruginosa ATCC 27853, replicates, read-out: MIC): ≥ 34 µg/mL | MIC (Pseudomonas aeruginosa; Pseudomonas aeruginosa, ATCC27853, strain ATCC 27853, read-out: MIC): ≥ 34 µg/mL
